Counter-ions that a name gives are not always drawn.
Assay: Solubility of belumosudil mesylate
Format: physicochemical

SMILES: CC(C)NC(=O)COc1cccc(-c2nc(Nc3ccc4[nH]ncc4c3)c3ccccc3n2)c1 [Belumosudil mesylate, 2-{3-[4-(1H-indazol-5-ylamino)-2-quinazolinyl]phenoxy}-N-(propan-2-yl) acetamide methanesulfonate (1:1)]
- solubility in DMSO (DMSO): soluble
- solubility in methanol and DMF (methanol and DMF): slightly soluble
- solubility in water (water): practically insoluble

— patent US12097202B2 (Kadmon Corporation, LLC, priority 2022, dated 2024)
